From patent US20220388990A1, “INHIBITORS OF CYCLIN-DEPENDENT KINASES” (Kinnate Biopharma Inc., priority 2019, published 2022) come the findings set out here.

For one assay, the target named is T1, CDK12 (Homo sapiens, UniProt Q9NYV4).
T1 construct: ProQinase (named as the party running the assay)
Kind of assay: Radiometric protein kinase assay (33PanQinase), assay condition 1, thiol-free conditions. Conditions: thiol-free conditions (1 mM TCEP), ATP at apparent Km. The class given is biochemical. As to the method: Example 2 —Assay condition 1 (thiol-free conditions)
The IC50 profile of compounds was determined using protein kinase in a customized, thiol free assay. IC50 values were measured by testing 10 concentrations (1×10^−05 M to 3×10^−10 M) of each test compound in singlicate against each kinase of interest. Prior to testing, the 1×10^−03M stock solutions in column 2 of the master plates were subjected to a serial, semi-logarithmic dilution using 100% DMSO as a solvent. […] Column 1 and 7 were filled with 100% DMSO as controls. Subsequently, 2×10 microliter from each well of the serial diluted copy plates were aliquoted with a 96 channel pipettor into two identical sets of “compound dilution plates”. All plates were barcoded for automated identification and tracking purposes. IC50 values were measured by testing 10 concentrations (1×10^−05 M to 3×10^−10 M) of each compound in singlicate. All compounds were stored as powder until being solubilized in DMSO. Solubilized compounds were stored as 1×10^−02 M/100% DMSO stock solutions. Prior to the assay process, 90 microliters of H2O were added to each well of a set of compound dilution plates. To minimize potential precipitation, the H2O was added to each plate only a few minutes before the transfer of the compound solutions into the assay plates. Each plate was shaken thoroughly, resulting in compound dilution plates with a final of 10% DMSO. For each assay, 5 microliters of solution from each well of the compound dilution plates/10% DMSO were transferred into the assay plate. The final volume of the assay was 50 μl. All compounds were tested at 10 final assay concentrations in the range from 1×10^−05 M to 3×10^−10 M, in singlicate. The final DMSO concentration in the reaction cocktails was 1% in all cases. A radiometric protein kinase assay (33PanQinase® Activity Assay) was used for measuring the kinase activity of the protein kinase. All kinase assays were performed in 96-well FlashPlates™ from PerkinElmer (Boston, Mass., USA) in a 50 microliter reaction volume. The reaction cocktail was pipetted in four steps in the following order: 20 microliter of assay buffer (standard buffer) 5 microliter of ATP solution (in H2O) 5 microliter of test compound (in 10% DMSO) 20 microliter enzyme/subtrate mix. Each assay for the protein kinase contained 70 mM HEPES-NaOH pH 7.5, 3 mM MgCl2, 3 mM MnCl2, 3 microM Na-orthovanadate, 1 mM TCEP, 50 μg/ml PEG20000, ATP (corresponding to the apparent ATP-Km of the kinase, see Table A), [gamma-33P]-ATP (approx. 6×10×E5 cpm per well), with the protein kinase and relevant substrate being used in pre-determined amounts, depending on the kinase in question. For all experiments labeled as “Thiol-free”, all glutathione was exchanged from protein preparations so as to be removed from the assay and final buffer conditions contained no thiol- containing reagents. This was done so there would be no interference with the key cysteines in the proteins of interest.
For data analysis, the median value of the counts in column 1 (n=8) of each assay plate was defined as “low control”. This value reflects unspecific binding of radioactivity to the plate in the absence of a protein kinase but in the presence of the substrate. The median value of the counts in column 7 of each assay plate (n=8) was taken as the “high control”, i.e. full activity in the absence of any inhibitor. The difference between high and low control was taken as 100% activity. As part of the data evaluation the low control value from a particular plate was subtracted from the high control value as well as from all 80 “compound values” of the corresponding plate. The residual activity (in %) for each well of a particular plate was calculated by using the following formula:
Res. Activity (%)=100×[(cpm of compound−low control)/(high control−low control)] […]

A further assay concerns the target T2, CDK12 wt/CycK (Homo sapiens, UniProt Q9NYV4).
T2 construct: either as full-length or enzymatically active fragments
Kind of assay: Radiometric protein kinase assay (33PanQinase), assay condition 2, thiol containing conditions. The class given is biochemical. As to conditions: thiol containing conditions (1.2 mM DTT), ATP 0.3 μM. As to the method: Example 1—Assay condition 2 (thiol containing conditions)
Objective: The IC50 profile of test compounds was determined using protein kinases. IC50 values were measured by testing 10 concentrations (1×10^−04M, 3×10^−05M, 1×10^−05M, 3×10^−06M, 1×10^−06M, 3×10^−07M, 1×10^−07M, 3×10^−08M, 1×10^−08M, and 3×10^−09M) of each compound in singlicate.
Test compounds: The compounds were provided as pre-weighed powders in vials. The compounds were dissolved to 1×10^−02M by adding DMSO. 100 μl of each of the resulting stock solutions were transferred into column 2 of four 96 well “master plates”
Prior to testing, the 1×10^−02M stock solutions in column 2 of the master plates were subjected to a serial, semi-logarithmic dilution using 100% DMSO as a solvent. […] Column 1 and 7 were filled with 100% DMSO as controls. Subsequently, 2×10 μl from each well of the serial diluted copy plates were aliquoted with a 96 channel pipettor into two identical sets of “compound dilution plates”.
In the process, 90 μl H2O were added to each well of a set of compound dilution plates. To minimize potential precipitation, the H2O was added to each plate only a few minutes before the transfer of the compound solutions into the assay plates. Each plate was shaken thoroughly, resulting in a “compound dilution plate/ 10% DMSO”.
For the assays, 5 μl solution from each well of the compound dilution plates/10% DMSO were transferred into the assay plates. The final volume of the assay was 50 μl. All compounds were tested at 10 final assay concentrations in the range from 1×10^−04M to 3×10^−09M, in singlicate. The final DMSO concentration in the reaction cocktails was 1% in all cases.
Recombinant protein kinases: All protein kinases were expressed in Sf9 insect cells or in E.coli as recombinant GST-fusion proteins or His-tagged proteins, either as full-length or enzymatically active fragments. All kinases were produced from human cDNAs and purified by either GSH-affinity chromatography or immobilized metal. Affinity tags were removed from a number of kinases during purification. The purity of the protein kinases was examined by SDS-PAGE/Coomassie staining, the identity was checked by mass spectroscopy.
Protein kinase assay: A radiometric protein kinase assay (^33PanQinase® Activity Assay) was used for measuring the kinase activity. All kinase assays were performed in 96-well FlashPlates™ from PerkinElmer (Boston, MA, USA) in a 50 μl reaction volume. The reaction cocktail was pipetted in four steps in the following order: • 20 μl of assay buffer (standard buffer) • 5μl of ATP solution (in H2O) • 5μl of test compound (in 10% DMSO) • 20 μl enzyme/substrate mix
The assay for all protein kinases contained 70 mM HEPES-NaOH pH 7.5, 3 mM MgCl2, 3 mM MnCl2, 3 μM Na-orthovanadate, 1.2 mM DTT, 50 μg/ml PEG20000, ATP (variable concentrations, corresponding to the apparent ATP-K. of the respective kinase), [γ-^33P]-ATP (approx. 9×10^05cpm per well), protein kinase, and substrate.
The following amounts of enzyme and substrate were used per well:
The reaction cocktails were incubated at 30° C. for 60 minutes. The reaction was stopped with 50 μl of 2% (v/v) H3PO4, plates were aspirated and washed two times with 200 μl 0.9% (w/v) NaCl. Incorporation of ^33Pi was determined with a microplate scintillation counter (Microbeta, Wallac). All assays were performed with a BeckmanCoulter/SAGIANTM Core System.
Evaluation of raw data: The median value of the counts in column 1 (n=8) of each assay plate was defined as “low control”. This value reflects unspecific binding of radioactivity to the plate in the absence of a protein kinase but in the presence of the substrate. The median value of the counts in column 7 of each assay plate (n=8) was taken as the “high control”, i.e. full activity in the absence of any inhibitor. The difference between high and low control was taken as 100% activity. […]

Where a name gives a salt, the structure may show the parent alone.

T1 sequence (Q9NYV4 whole entry): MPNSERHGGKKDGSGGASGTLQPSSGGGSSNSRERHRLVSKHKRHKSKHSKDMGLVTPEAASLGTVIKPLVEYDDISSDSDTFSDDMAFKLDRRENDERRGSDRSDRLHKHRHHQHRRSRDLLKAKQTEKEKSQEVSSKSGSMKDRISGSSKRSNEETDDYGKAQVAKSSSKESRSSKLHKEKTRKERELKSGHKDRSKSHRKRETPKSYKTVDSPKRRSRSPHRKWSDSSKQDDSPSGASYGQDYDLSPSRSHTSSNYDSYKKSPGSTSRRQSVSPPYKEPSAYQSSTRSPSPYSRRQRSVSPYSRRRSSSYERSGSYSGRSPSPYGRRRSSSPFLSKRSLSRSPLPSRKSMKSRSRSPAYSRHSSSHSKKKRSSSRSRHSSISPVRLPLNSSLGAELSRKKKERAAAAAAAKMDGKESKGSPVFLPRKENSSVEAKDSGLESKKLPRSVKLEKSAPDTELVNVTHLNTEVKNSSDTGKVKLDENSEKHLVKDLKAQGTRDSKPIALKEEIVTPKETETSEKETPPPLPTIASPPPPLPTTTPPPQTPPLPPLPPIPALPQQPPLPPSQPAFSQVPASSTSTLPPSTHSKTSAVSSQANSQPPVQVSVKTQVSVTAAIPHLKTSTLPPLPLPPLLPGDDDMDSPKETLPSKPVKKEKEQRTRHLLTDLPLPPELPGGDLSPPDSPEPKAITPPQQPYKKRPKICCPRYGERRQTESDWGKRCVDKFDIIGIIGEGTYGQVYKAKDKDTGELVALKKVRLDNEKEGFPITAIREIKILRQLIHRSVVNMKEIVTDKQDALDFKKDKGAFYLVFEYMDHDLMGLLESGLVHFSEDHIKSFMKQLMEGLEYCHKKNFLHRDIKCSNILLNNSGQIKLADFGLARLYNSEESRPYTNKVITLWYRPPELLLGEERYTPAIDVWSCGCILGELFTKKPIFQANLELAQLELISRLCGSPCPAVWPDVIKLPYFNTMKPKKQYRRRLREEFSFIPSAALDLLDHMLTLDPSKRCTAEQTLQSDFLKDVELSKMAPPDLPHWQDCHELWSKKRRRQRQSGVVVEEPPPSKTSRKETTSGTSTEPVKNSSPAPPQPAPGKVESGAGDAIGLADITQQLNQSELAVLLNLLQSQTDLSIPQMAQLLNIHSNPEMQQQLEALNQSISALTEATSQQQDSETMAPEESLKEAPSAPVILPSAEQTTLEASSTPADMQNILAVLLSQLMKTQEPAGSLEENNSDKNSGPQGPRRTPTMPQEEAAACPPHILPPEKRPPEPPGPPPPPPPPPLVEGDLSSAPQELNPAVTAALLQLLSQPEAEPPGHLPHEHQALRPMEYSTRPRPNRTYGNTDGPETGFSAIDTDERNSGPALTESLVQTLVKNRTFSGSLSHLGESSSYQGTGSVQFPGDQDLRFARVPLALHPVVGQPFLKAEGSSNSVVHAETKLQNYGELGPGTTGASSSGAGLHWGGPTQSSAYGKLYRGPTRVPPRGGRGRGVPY
T1 sequence (O75909 whole entry partner): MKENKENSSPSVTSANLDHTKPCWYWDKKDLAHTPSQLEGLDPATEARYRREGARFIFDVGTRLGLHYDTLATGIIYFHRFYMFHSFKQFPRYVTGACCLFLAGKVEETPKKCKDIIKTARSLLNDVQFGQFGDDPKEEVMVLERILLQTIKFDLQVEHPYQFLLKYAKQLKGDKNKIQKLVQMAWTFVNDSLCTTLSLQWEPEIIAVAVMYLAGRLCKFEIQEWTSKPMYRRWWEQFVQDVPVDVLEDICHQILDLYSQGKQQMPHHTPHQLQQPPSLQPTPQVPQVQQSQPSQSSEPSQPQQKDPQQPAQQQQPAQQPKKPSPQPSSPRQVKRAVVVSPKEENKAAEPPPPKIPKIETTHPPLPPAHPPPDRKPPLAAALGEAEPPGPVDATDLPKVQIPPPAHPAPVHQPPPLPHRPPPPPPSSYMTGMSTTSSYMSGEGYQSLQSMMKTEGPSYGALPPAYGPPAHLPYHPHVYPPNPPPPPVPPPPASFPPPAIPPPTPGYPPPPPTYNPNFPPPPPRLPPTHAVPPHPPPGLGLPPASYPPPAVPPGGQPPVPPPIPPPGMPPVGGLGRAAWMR
T2 sequence (Q9NYV4 whole entry, the tested form may be a part): as the sequence (Q9NYV4 whole entry) above
T2 sequence (O75909 whole entry partner, the tested form may be a part): as the sequence (O75909 whole entry partner) above

Take `C=CC(=O)Nc1ccc2c(N3CC[C@@H](Nc4ncc(C#N)cn4)C3)nc(C)nc2c1` [Example 30, (R)—N-(4-(3-((5-cyanopyrimidin-2-yl)amino)pyrrolidin-1-yl)-2-methylquinazolin-7-yl)acrylamide]: the IC50 on CDK12 is at most 100 nM.

As to `C=CC(=O)Nc1ccc2c(N3CC[C@@H](Nc4ncc(C#N)cn4)C3)nc(N)nc2c1` [Example 31, (R)—N-(2-amino-4-(3-((5-cyanopyrimidin-2-yl)amino)pyrrolidin-1-yl)quinazolin-7-yl)acrylamide], the IC50 on CDK12 is at most 100 nM.

On to `C=CC(=O)Nc1ccc2c(N3CC[C@@H](Nc4ncc(C#N)cn4)C3)nc(OCC(F)(F)F)nc2c1` [Example 32, (R)—N-(4-(3-((5-cyanopyrimidin-2-yl)amino)pyrrolidin-1-yl)-2-(2,2,2-trifluoroethoxy)quinazolin-7-yl)acrylamide], for which the half-maximal inhibitory concentration (IC50) at CDK12 wt/CycK fell in the range of 100 to 1000 nM. In turn, `CC#CC(=O)Nc1ccc2c(N3CC[C@@H](Nc4ncc(Br)cn4)C3)nccc2c1` [Example 33, (R)—N-(1-(3-((5-bromopyrimidin-2-yl)amino)pyrrolidin-1-yl)isoquinolin-6-yl)but-2-ynamide] had an IC50 at CDK12 wt/CycK of at most 100 nM. As for `C=CC(=O)Nc1ccc2c(N3CC[C@@H](Nc4cc5c(cn4)cnn5CC)C3)ncnc2c1` [Example 34, (R)—N-(4-(3-((1-ethyl-1H-pyrazolo[4,3-c]pyridin-6-yl)amino)pyrrolidin-1-yl)quinazolin-7-yl)acrylamide], the 50% inhibitory concentration (IC50) at CDK12 was at most 100 nM.

As for `C=CC(=O)N(C)c1ccc2c(N3CC[C@@H](Nc4ncc(Br)cn4)C3)nc(N3CCN(C)CC3)nc2c1` [Example 43, (R)—N-(4-(3-((5-bromopyrimidin-2-yl)amino)pyrrolidin-1-yl)-2-(4-methylpiperazin-1-yl)quinazolin-7-yl)-N-methylacrylamide], the half-maximal inhibitory concentration (IC50) at CDK12 was at most 100 nM. Still for that read-out and setting: to `C#Cc1cnc(N[C@@H]2CCN(c3nccc4cc(N(C)C(=O)C=C)ccc34)C2)nc1` [Example 44, (R)—N-(1-(3-((5-ethynylpyrimidin-2-yl)amino)pyrrolidin-1-yl)isoquinolin-6-yl)-N-methylacrylamide] belongs at most 100 nM; to `C=CC(=O)Nc1ccc2c(N3CC[C@@H](Nc4ncc(C#N)cn4)C3)nnc(N3CCC3)c2c1` [Example 45, (R)—N-(4-(azetidin-1-yl)-1-(3-((5-cyanopyrimidin-2-yl)amino)pyrrolidin-1-yl)phthalazin-6-yl)acrylamide formate], at most 100 nM; to `C#Cc1cnc(N[C@@H]2CCN(c3nccc4cc(NC(=O)C=C)ccc34)C2)nn1` [Example 47, (R)—N-(1-(3-((6-ethynyl-1,2,4-triazin-3-yl)amino)pyrrolidin-1-yl)isoquinolin-6-yl)acrylamide], at most 100 nM. The same measure, in the same setting: with `C#Cc1cnc(N[C@@H]2CCN(c3nccc4cc(NC(=O)C=C)ccc34)C2)nc1` [Example 48, (R)—N-(1-(3-((5-ethynylpyrimidin-2-yl)amino)pyrrolidin-1-yl)isoquinolin-6-yl)acrylamide] the figure was at most 100 nM; with `C=CC(=O)Nc1ccc2c(N3CC[C@@H](Nc4ncc(C#N)cn4)C3)nncc2c1` [Example 49, (R)—N-(1-(3-((5-cyanopyrimidin-2-yl)amino)pyrrolidin-1-yl)phthalazin-6-yl)acrylamide], at most 100 nM. Still for that read-out and setting: with `C=CC(=O)Nc1ccc2c(N3CC[C@@H](Nc4ncc(Br)cn4)C3)nncc2c1` [Example 50, (R)—N-(1-(3-((5-bromopyrimidin-2-yl)amino)pyrrolidin-1-yl)phthalazin-6-yl)acrylamide] the figure was at most 100 nM. Regarding `C#Cc1cnc(N[C@@H]2CCN(c3nncc4cc(NC(=O)C=C)ccc34)C2)nc1` [Example 51, (R)—N-(1-(3-((5-ethynylpyrimidin-2-yl)amino)pyrrolidin-1-yl)phthalazin-6-yl)acrylamide formate], at CDK12, the IC50 is at most 100 nM. On the same count and under the same terms, with `C=CC(=O)Nc1ccc2c(N3CC[C@@H](Nc4ncc(Br)cn4)C3)nnc(N3CCC3)c2c1` [Example 52, (R)—N-(4-(azetidin-1-yl)-1-(3-((5-bromopyrimidin-2-yl)amino)pyrrolidin-1-yl)phthalazin-6-yl)acrylamide] the figure was at most 100 nM; with `C#Cc1cnc(N[C@@H]2CCN(c3nnc(N4CCC4)c4cc(NC(=O)C=C)ccc34)C2)nn1` [Example 53], at most 100 nM. As for `C=CC(=O)Nc1ccc2c(N3CC[C@@H](Nc4ncc(C#N)cn4)C3)nnc(N3CC(C#N)C3)c2c1` [Example 54, (R)—N-(4-(3-cyanoazetidin-1-yl)-1-(3-((5-cyanopyrimidin-2-yl)amino)pyrrolidin-1-yl)phthalazin-6-yl)acrylamide], the IC50 on CDK12 was at most 100 nM.
